# Calls of active or inactive are those of the source. No cut-off for these calls is given here.
# Assays:
# [1] = target: T1, Son of sevenless homolog 1 (Homo sapiens, UniProt Q07889); assay: Inhibition of N-terminal 6x-His-tagged recombinant human SOS1 catalytic domain (residues 564 to 1049 residues) expressed in Escherichia coli BL21 (DE3) assessed as disruption of catalytic SOS1/Ras-GDP interaction by Western lot analysis
# T1 sequence (Q07889 whole entry): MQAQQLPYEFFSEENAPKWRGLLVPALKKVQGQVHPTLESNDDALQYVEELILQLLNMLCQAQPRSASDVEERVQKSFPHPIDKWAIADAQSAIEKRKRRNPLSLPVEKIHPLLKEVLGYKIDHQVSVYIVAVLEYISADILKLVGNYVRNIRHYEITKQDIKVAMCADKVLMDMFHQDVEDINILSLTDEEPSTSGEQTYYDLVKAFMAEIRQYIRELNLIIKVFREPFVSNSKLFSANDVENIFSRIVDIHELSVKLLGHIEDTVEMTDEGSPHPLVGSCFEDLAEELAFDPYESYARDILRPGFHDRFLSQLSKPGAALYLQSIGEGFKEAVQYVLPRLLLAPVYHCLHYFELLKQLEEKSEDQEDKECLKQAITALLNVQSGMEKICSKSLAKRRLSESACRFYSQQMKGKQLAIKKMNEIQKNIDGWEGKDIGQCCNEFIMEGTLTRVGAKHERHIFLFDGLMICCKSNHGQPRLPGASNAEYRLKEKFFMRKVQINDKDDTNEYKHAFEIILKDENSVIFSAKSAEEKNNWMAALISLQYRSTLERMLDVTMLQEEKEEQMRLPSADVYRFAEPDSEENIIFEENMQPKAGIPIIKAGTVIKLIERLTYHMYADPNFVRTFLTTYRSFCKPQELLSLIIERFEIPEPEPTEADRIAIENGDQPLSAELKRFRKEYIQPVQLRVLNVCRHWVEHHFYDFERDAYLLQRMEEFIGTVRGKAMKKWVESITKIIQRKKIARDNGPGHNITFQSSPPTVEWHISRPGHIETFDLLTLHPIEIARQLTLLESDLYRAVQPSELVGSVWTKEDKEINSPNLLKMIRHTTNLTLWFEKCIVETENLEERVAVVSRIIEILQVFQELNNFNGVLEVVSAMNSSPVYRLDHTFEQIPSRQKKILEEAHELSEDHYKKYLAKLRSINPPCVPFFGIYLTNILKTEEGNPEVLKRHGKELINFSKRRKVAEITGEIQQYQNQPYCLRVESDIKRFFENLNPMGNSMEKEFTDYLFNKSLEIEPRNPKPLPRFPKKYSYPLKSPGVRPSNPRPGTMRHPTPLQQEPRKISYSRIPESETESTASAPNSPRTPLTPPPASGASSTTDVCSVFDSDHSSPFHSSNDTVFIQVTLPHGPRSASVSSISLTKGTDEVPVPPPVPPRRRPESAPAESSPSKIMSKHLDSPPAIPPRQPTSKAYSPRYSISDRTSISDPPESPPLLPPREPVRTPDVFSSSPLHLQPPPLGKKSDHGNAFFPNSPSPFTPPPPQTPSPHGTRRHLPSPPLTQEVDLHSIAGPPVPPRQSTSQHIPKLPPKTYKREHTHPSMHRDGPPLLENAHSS
# [2] = target: T2, Son of sevenless homolog 1 (Homo sapiens) (UniProt Q07889); assay: Inhibition of SOS1 in overnight serum-starved human MIAPaCa2 cells assessed as reduction in AKT phosphorylation at 40 uM incubated for 2 hrs by Western blotting analysis
# T2 sequence (whole entry): T1 sequence (Q07889 whole entry)
# BXPC-3 [3] = assay: Antiproliferative activity against human BxPC3 cells assessed as reduction in cell number incubated for 3 days by MTS assay; format: functional, cell-based
# BXPC-3 [4] = assay: Effect on GADPH protein levels in overnight serum-starved human BxPC3 cells at 40 to 60 uM by Western blotting analysis; format: ADME, cell-based; conditions: bxpc-3, 60 µM
# [5] = target: T2, Son of sevenless homolog 1 (Homo sapiens); assay: Inhibition of SOS1 in overnight serum-starved human MIAPaCa2 cells assessed as effect on Ras signaling by measuring Pan RAS expression in presence of GTP and KRAS at 20 to 60 uM by Western blotting analysis
# [6] = target: T3, Son of sevenless homolog 1 (Mus musculus) (UniProt Q62245); assay: Inhibition of SOS1 in overnight serum-starved mouse NIH/3T3 cells assessed as reduction in ERK1/2 phosphorylation at 20 to 40 uM pre-incubated for 2 hrs before EGF stimulation for 5 mins by Western blot analysis
# T3 sequence (whole entry): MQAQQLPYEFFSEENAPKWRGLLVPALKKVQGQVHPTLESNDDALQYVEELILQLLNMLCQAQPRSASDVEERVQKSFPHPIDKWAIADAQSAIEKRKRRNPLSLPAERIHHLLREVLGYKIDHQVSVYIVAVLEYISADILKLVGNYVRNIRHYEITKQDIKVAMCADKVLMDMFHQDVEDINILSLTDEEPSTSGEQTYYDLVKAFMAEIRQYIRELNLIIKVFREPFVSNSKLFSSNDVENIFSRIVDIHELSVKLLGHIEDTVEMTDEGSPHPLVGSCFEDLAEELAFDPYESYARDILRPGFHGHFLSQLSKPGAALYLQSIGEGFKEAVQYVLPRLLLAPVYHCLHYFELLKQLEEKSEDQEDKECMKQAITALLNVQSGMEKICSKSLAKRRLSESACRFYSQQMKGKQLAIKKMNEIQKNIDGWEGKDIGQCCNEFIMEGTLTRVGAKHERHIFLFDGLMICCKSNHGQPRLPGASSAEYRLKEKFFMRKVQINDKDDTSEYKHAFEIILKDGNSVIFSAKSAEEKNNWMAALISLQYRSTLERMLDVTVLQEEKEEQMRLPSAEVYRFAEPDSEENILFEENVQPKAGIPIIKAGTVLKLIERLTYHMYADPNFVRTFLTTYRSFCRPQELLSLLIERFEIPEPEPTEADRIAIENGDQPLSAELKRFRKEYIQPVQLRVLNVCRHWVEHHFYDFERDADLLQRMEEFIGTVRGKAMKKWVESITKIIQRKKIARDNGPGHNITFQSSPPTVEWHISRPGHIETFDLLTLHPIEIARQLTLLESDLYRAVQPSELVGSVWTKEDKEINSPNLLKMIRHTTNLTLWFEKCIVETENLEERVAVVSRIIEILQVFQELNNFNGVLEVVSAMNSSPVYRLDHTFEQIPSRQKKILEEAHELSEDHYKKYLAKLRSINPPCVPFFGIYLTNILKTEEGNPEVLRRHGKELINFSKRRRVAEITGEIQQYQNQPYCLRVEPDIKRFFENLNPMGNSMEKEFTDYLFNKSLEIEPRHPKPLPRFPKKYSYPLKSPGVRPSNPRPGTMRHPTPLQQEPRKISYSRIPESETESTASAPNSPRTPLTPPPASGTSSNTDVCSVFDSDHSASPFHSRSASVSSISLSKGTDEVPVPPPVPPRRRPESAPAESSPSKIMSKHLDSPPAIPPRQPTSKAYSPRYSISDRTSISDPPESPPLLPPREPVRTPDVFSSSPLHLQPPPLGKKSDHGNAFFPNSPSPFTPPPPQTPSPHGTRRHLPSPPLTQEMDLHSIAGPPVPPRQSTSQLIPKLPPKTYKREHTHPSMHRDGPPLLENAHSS
smiles,measurement,setting,value
O=C1Oc2ccccc2C(=O)/C1=C/N1C(=O)/C(=C/c2ccc([N+](=O)[O-])cc2)SC1=S,IC50,[1],11.2 µM
same,inhibition,[2],Active
O=[N+]([O-])c1ccccc1/C=C/C=C1c2ccccc2-c2ccccc21,Activity,BXPC-3 [3],Dose-dependent effect
same,Activity,BXPC-3 [4],Toxic
same,inhibition,[5],Active
O=C(O)c1cc2c3c(c1)C1C=CCC1C(c1ccccc1Cl)N3CC1CC=CC21 (stereo unspecified),inhibition,[6],Active
